# PubChem BioAssay AID720589 (Broad Institute, 2013)
# Active and inactive are the calls of the source.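 How the source made its calls: active means fitted curve drops below -35% activity at a concentration within twice the top valid tested dose; inconclusive means no clear call, values can overlap the other calls; inactive means signal rising instead of falling, among other cases.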
# Assay: HepG2 hepatoma cell cytotoxicity, dose response, cytotoxicity control, CellTiter-Glo luminescence, cherry-pick, set 3 (AID 720589)
# Conditions: HepG2 viability, ATP luminescence (CellTiter-Glo), 72 h, stronger effect = lower value
# [1] = at 8 µM, 0% = untreated, negative = ATP loss
# [2] = at 2.85 µM, 0% = untreated, negative = ATP loss
# [3] = at 26 µM, 0% = untreated, negative = ATP loss
# [4] = at 0.3 µM, 0% = untreated, negative = ATP loss
# [5] = at 0.011 µM, 0% = untreated, negative = ATP loss
# [6] = at 0.9 µM, 0% = untreated, negative = ATP loss
# [7] = at 0.1 µM, 0% = untreated, negative = ATP loss
smiles,measurement,setting,value
CCOc1cc2[nH]c(=S)n(Cc3ccc(C(=O)N4CCN(C)CC4)cc3)c(=O)c2cc1OCC,max activity,[1],-29.8% (inactive)
Cc1cc(C)cc(C(=O)NC(=S)Nc2ccc(Cc3ccncc3)cc2)c1,max activity,[2],-39.1% (inactive)
CN(CCO)c1ccc(/C=N/Nc2nncc3ccccc23)cc1,max activity,[3],-29.7% (inactive)
COc1ccc(S(=O)(=O)N2CCCc3nc(-c4ccc(F)cc4)ccc32)cc1,max activity,[4],-23.5% (inactive)
N#Cc1cccc(-c2ccc(C3[C@@H]4CN(C(=O)Cc5ccncc5)C[C@H]3N4)cc2)c1 (stereo partly drawn),max activity,[5],21% (inactive)
O=C1C(=O)N(CCS(=O)(=O)c2ccccc2)c2ccc(Cl)cc21,max activity,[6],-12.3% (inactive)
COc1cc2oc3cc(C#Cc4ccc(N)cc4)ccc3c(=O)c2cc1OC,max activity,[3],-39.4% (inactive)
CC(=O)N1CCCC(c2cc(C(=O)Nc3ccccc3)no2)C1 (stereo not drawn),max activity,[5],15.4% (inactive)
C=CCOc1ccccc1C(=O)/C=C1/C(=O)Nc2ccccc21,max activity,[3],-31.5% (inactive)
COCc1cc(C)nc2sc(C(=O)NCCO)c(-n3cccc3)c12,max activity,[4],7.49% (inactive)
O=C(N/N=C/c1ccc[nH]1)c1cc(-c2ccc(Cl)cc2)nc2ccccc12,max activity,[3],-21.3% (inactive)
CC(C)CN(C(=O)CN1CCOCC1)c1c(N)n(CC(C)C)c(=O)[nH]c1=O,max activity,[4],-39% (inactive)
C[C@]12CC[C@H](O)C[C@H]1CC[C@@H]1C2CC[C@]2(C)[C@@H](C3=CC(=O)OC3)[C@@H](O)C[C@]12O (stereo partly drawn),max activity,at 2.85 µM,-53.6% (inactive)
Cc1cccc(N2CCN(C3C(=O)Nc4ccccc4-n4nnnc43)CC2)c1C (stereo not drawn),max activity,[5],12.3% (inactive)
CCC(C)Cn1c(O)cc2nn(-c3nc4ccccc4s3)c(=O)c-2c1C (stereo not drawn),max activity,[7],-32.2% (inactive)
COc1ccc(C(=O)NCCNc2nc3cc(C)cc(C)c3cc2C#N)c(OC)c1,max activity,[2],-25.6% (inactive)
COC(=O)c1cccc(NC(=O)NC(=O)c2ccccc2Cl)c1,max activity,[6],-19.2% (inactive)
CCOc1ccc(-c2cc(CCCC(=O)NCc3ccc(C)cc3)no2)cc1,max activity,[2],-24.4% (inactive)
COc1ccc(C/C(N)=N/OC(C)=O)cc1OC,max activity,[7],-33.4% (inactive)
Cc1ccc2c(c1)C(=O)N1[C@H]3c4cc(Br)ccc4OC[C@@H]3[C@H](c3ccccc3)[C@]1(C)C(=O)N2,max activity,[2],-19.3% (inactive)
CCOC(=O)Cc1csc(NC(=S)NC(=O)c2ccc(C)cc2)n1,max activity,[2],11.3% (inactive)
C/C=C/c1ccc(C2[C@@H]3CN(C(=O)Cc4ccccc4)C[C@H]2N3)cc1 (stereo partly drawn),max activity,[2],-29.1% (inactive)
O=C1NC2C(=CC(O)C(O)C2O)c2cc3c(cc21)OCO3 (stereo not drawn),max activity,at 0.035 µM,-17.9% (inactive)
CCc1ccc2oc(C(=O)N3CCN(c4ccccc4OC)CC3)cc(=O)c2c1,max activity,[6],-16.2% (inactive)
COC(=O)C[C@H]1CC[C@@H]2[C@H](COc3ccc(NC(=O)Nc4cccc(Cl)c4)cc3C(=O)N2C)O1,max activity,[4],-38.3% (inactive)
O=C(CNC(=O)Cc1ccccc1)N=Nc1c(O)n(Cc2ccc3c(c2)OCO3)c2ccccc12,max activity,[4],-28.9% (inactive)
Cc1ccccc1N=Nc1c(O)n(C)c2ccccc12,max activity,[2],-14.8% (inactive)
Cc1ccc(/C=C2\SC(=S)N(CCC(=O)NNC(=O)c3ccccc3O)C2=O)cc1,max activity,[4],-42.1% (inactive)
CCCCCCN(C(=O)CCCCCN1C(=O)NC(c2ccc(Cl)cc2)C(C(=O)OCc2ccccc2)=C1C)C(C(=O)NCCCC)c1ccc(OCC(=O)OC)c(C(=O)OC)c1 (stereo not drawn),max activity,[2],-30.9% (inactive)
Cc1nc2ncccn2c1-c1csc(Nc2ccc(O)cc2)n1,max activity,[3],-23.1% (inactive)
O=C(NCc1ccc(F)cc1)N1[C@H]2CC[C@@H]1C=C(c1ccc(F)cc1OCc1ccccc1)C2,max activity,[5],21.9% (inactive)
CCC1=Nc2cc(C(=O)NCC3CCCO3)ccc2Sc2ccc(Br)cc21 (stereo not drawn),max activity,[3],-32.3% (inactive)
COc1ccc(CN(C)C[C@H]2Oc3ccc(NC(=O)CCCCCC(=O)Nc4ccccc4N)cc3CC(=O)N([C@H](C)CO)C[C@H]2C)cc1,max activity,"at 21 µM, 0% = untreated, negative = ATP loss",-31.8% (inactive)
Cc1cccc(/C=N/Nc2ccc3ccccc3n2)c1,max activity,[5],29% (inactive)
O=C(CCCCl)Nc1nc(-c2ccc3c(c2)OCCO3)cs1,max activity,[5],-25% (inactive)
CCCn1nnc(NC(=S)NC(=O)C(C)(C)C)n1,max activity,[3],-35.2% (inactive)
O=c1c(Cl)cc(Cl)nn1-c1ccccc1,max activity,[3],-34.4% (inactive)
CN(C)c1ccc(N=Nc2ccc(C(=O)O)cc2)cc1,max activity,[4],-28.7% (inactive)
N/C(Cc1nc(-c2ccc(F)cc2)cs1)=N\O,max activity,[5],20.4% (inactive)
O=C(O)c1ccc2cc(-c3ccccc3)[nH]c2c1,max activity,[3],-25% (inactive)
O=c1oc2cc(O)ccc2s1,max activity,[6],-35.6% (inactive)
C(=Cc1cnc2ccccc2n1)c1ccc2c(c1)OCO2,max activity,[3],-50.5% (inactive)
CCNC(=O)[C@@H]1[C@@H](CO)[C@@H]2Cn3c(ccc(C4=CCCCC4)c3=O)[C@H]1N2CC,max activity,[3],-22.3% (inactive)
CCOC(=O)Cc1ccc(NC(=O)c2ccccc2Br)cc1,max activity,"at 0.035 µM, 0% = untreated, negative = ATP loss",-16.1% (inactive)
COc1ccc(C=C2CCc3ccccc3C2=O)cc1,max activity,[3],-23.4% (inactive)
COC(=O)C[C@@H]1CC[C@@H]2[C@H](COc3ccc(NC(=O)c4cccc(F)c4)cc3C(=O)N2C)O1,max activity,[4],-26.8% (inactive)
COc1ccc2nc(-c3ccc(F)cc3)sc2c1,max activity,[4],-47.1% (inactive)
O=C(Nc1ccc(NC(=O)c2cc3ccccc3o2)cc1)c1ccc2c(c1)OCCO2,max activity,[6],-30.6% (inactive)
C(=N\Nc1ccc2ccccc2n1)/c1ccc2c(c1)OCCO2,max activity,[3],-26.2% (inactive)
O=c1c2ccccc2oc2cc(C#CC3(O)CCCCC3)ccc12,max activity,[4],13.9% (inactive)
C/C=C/c1ccc([C@H]2[C@@H](CO)N3C(=O)CN(S(=O)(=O)c4cccc(F)c4)C[C@@H]23)cc1,max activity,[5],26.3% (inactive)
COC(=O)C[C@@H]1CC[C@@H]2[C@@H](COc3ccc(NC(=O)Nc4cccc(Cl)c4)cc3C(=O)N2C)O1,max activity,[1],-33.7% (inactive)
COc1ccc(OC)c(/C=C/c2ccnc3ccccc23)c1,max activity,[1],-41.5% (inactive)
Cc1noc(C)c1NC(=O)Nc1ccc2c(c1)CC(=O)N([C@@H](C)CO)C[C@@H](C)[C@@H](CN(C)Cc1ccc(Cl)c(Cl)c1)O2,max activity,[7],36.5% (inactive)
CCCNC(=O)[C@@H]1[C@@H](CO)[C@@H]2Cn3c(ccc(-c4ccccc4)c3=O)[C@H]1N2C(=O)CC,max activity,[7],-16.5% (inactive)
CCS(=O)(=O)N1Cc2ccccc2CC1C(=O)Nc1nnc(SCc2ccc(C#N)cc2)s1 (stereo not drawn),max activity,[5],21.9% (inactive)
c1cncc(-c2ccc([C@@H]3[C@H]4CNC[C@@H]3N4CC3CCOCC3)cc2)c1,max activity,[6],-28.8% (inactive)
C[C@@H]1CN([C@@H](C)CO)C(=O)Cc2cc(NC(=O)Nc3ccc(C(F)(F)F)cc3)ccc2O[C@@H]1CN(C)Cc1ccc(C(=O)Nc2ccccc2N)cc1,max activity,[2],-33% (inactive)
O=C(O)c1ccc(N/N=C/c2ccc3nccnc3c2)cc1,max activity,[3],-27.1% (inactive)
COC(=O)c1cccc(NC(=O)NC(=O)c2ccc(Cl)cc2)c1,max activity,[1],-15.3% (inactive)
O=C(NC1CCCC1)C(c1ccccc1)n1c(CSCCOc2ccccc2)nc2ccccc21 (stereo not drawn),max activity,[4],-34.7% (inactive)
C[C@@H]1CN([C@@H](C)CO)C(=O)c2cccc(NC(=O)Nc3cccc4ccccc34)c2O[C@@H]1CN(C)Cc1ccc(C(=O)Nc2ccccc2N)cc1,max activity,[1],-36.9% (inactive)
CCN1C/C(=C/c2ccc(OC)c(O)c2)C(=O)/C(=C/c2ccc(OC)c(O)c2)C1,max activity,[5],-39.6% (inactive)
Cc1ccc(Cl)cc1NC(=O)Cn1cc(C(F)(F)F)cc(Cl)c1=O,max activity,[1],-28.6% (inactive)
COc1ccccc1/C=C1\SC(=S)N(CCC(=O)Nc2cc(C)on2)C1=O,max activity,[5],-26.3% (inactive)
COc1cccc(CN2CCC2(C)C(=O)Nc2cccc3cccnc23)c1F (stereo not drawn),max activity,[3],-24% (inactive)
O=c1[nH]c(=O)n([C@H]2C[C@H](O)[C@@H](CO)O2)cc1F,max activity,[2],-50.3% (inactive)
CN(C)[C@@H]1CCC[C@@H]1OC(=O)C(c1ccccc1)c1ccccc1,max activity,[5],32.6% (inactive)
Cc1ccsc1/C=N/Nc1ccc(C(=O)O)cc1,max activity,[3],-27.6% (inactive)
C[C@H](CO)N1C[C@H](C)[C@H](CN(C)Cc2ccc(C(=O)Nc3ccccc3N)cc2)Oc2ccc(NS(=O)(=O)c3cccs3)cc2C1=O,max activity,[2],-29.1% (inactive)
CC(C)(C)c1ccc(Oc2ccc(NC(=O)C3CC=CCC3C(=O)O)cc2)cc1 (stereo not drawn),max activity,[3],17.4% (inactive)
C[C@H](CO)N1C[C@H](C)[C@@H](CN(C)Cc2ccc(C(F)(F)F)cc2)OCCCC[C@H](C)Oc2ccc(NS(=O)(=O)c3ccc(F)cc3)cc2C1=O,max activity,[4],27.5% (inactive)
CN1c2ccc(-c3ccc(C#N)cc3)cc2[C@H]2[C@H](CCN2S(=O)(=O)c2cccc(F)c2)[C@@H]1CO,max activity,[3],33.3% (inactive)
CCN1CCS/C1=C\C=C\C1=[N+](CC)CCS1,max activity,[1],-37.7% (inactive)
COc1ccc(C2=NNC(=Nc3cc(S(=O)(=O)N(C)C)ccc3C)SC2)c(OC)c1,max activity,[3],-17.3% (inactive)
CC(C)(C)c1ccc(Cn2c(=O)cnc3ccccc32)cc1,max activity,[3],-40.9% (inactive)
COc1ccc(-c2ccc3c(c2)[C@H]2[C@H](CCN2S(=O)(=O)c2ccc(OC)cc2)[C@@H](CO)N3C)cc1,max activity,[3],-27% (inactive)
OCCN1CCN(C(=S)c2ccc(-c3ccccc3)cc2)CC1,max activity,[4],-28.5% (inactive)
